Source: ChEMBL document CHEMBL4411335, “Identification and Optimization of Novel Small c-Abl Kinase Activators Using Fragment and HTS Methodologies” (J Med Chem, 2019)
pEC50, pIC50: −log10 of the molar value. Values after ≈ are worked out from the molar mass of the structure shown.

Key:
[1] = target: Tyrosine-protein kinase ABL1 (Homo sapiens, UniProt P00519, D382N); assay: Displacement of Myr-GQQPGKVLGDQRRPSL(K-TAMRA)G-amide from N-terminal-truncated human c-ABL D382N mutant (46 to 534 residues) after 30 mins by fluorescence polarization binding assay
[2] = target: T1, Tyrosine-protein kinase ABL1 (Homo sapiens, UniProt P00519); assay: Induction of human c-ABL phosphorylation at Y245/Y412 residues in bacmam-induced HEK-MSR2 cell lysates by in-cell Western blot analysis; assay type: subcellular, Lysate
[3] = Kinetic solubility of the compound at pH 7.4 after 1 hr by CLND-based assay; assay type: physicochemical; settings: buffer, read-out: Kinetic_solubility
[4] = Permeability of the compound at […] after 3 hrs by artificial membrane permeability assay; assay type: ADME; settings: PAMPA; read-out: permeability
[5] = target: T1, Tyrosine-protein kinase ABL1; assay: Activation of full length human 6His-tagged c-Abl expressed in baculovirus expression system using abltide as substrate after 2 hrs by IMAP assay; settings: for EC50 for c-Abl activation: read-out: pIC50 (converted)

T1 sequence (P00519 whole entry): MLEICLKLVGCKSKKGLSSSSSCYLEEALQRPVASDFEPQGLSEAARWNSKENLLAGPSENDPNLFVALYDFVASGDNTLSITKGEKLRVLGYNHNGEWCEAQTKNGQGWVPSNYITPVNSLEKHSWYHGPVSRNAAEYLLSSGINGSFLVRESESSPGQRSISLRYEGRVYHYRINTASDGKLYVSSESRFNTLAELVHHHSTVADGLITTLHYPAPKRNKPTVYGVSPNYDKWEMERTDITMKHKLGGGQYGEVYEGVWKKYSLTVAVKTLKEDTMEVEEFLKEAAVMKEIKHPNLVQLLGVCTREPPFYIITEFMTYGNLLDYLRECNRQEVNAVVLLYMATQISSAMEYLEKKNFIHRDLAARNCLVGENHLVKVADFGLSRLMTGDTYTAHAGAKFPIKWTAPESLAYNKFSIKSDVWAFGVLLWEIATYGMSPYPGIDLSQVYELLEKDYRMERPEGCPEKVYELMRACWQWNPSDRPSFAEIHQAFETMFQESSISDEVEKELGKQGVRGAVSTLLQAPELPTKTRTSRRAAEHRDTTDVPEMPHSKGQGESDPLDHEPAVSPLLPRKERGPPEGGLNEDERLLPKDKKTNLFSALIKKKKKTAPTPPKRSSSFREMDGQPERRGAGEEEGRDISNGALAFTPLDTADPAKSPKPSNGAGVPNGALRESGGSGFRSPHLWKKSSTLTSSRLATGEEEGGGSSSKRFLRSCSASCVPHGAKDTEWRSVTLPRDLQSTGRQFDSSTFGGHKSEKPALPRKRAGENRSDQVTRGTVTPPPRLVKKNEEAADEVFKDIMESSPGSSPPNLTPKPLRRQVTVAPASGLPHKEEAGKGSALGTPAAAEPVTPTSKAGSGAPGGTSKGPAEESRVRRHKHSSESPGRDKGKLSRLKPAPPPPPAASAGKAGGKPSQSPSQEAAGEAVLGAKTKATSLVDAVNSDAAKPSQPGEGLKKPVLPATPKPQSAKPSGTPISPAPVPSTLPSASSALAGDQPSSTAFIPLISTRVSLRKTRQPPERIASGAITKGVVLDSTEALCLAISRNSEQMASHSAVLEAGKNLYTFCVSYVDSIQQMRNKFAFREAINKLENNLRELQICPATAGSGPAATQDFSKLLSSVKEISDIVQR
Chain of Tyrosine-protein kinase ABL1 (Homo sapiens, UniProt P00519, D382N) (P00519 as listed by the source D382N): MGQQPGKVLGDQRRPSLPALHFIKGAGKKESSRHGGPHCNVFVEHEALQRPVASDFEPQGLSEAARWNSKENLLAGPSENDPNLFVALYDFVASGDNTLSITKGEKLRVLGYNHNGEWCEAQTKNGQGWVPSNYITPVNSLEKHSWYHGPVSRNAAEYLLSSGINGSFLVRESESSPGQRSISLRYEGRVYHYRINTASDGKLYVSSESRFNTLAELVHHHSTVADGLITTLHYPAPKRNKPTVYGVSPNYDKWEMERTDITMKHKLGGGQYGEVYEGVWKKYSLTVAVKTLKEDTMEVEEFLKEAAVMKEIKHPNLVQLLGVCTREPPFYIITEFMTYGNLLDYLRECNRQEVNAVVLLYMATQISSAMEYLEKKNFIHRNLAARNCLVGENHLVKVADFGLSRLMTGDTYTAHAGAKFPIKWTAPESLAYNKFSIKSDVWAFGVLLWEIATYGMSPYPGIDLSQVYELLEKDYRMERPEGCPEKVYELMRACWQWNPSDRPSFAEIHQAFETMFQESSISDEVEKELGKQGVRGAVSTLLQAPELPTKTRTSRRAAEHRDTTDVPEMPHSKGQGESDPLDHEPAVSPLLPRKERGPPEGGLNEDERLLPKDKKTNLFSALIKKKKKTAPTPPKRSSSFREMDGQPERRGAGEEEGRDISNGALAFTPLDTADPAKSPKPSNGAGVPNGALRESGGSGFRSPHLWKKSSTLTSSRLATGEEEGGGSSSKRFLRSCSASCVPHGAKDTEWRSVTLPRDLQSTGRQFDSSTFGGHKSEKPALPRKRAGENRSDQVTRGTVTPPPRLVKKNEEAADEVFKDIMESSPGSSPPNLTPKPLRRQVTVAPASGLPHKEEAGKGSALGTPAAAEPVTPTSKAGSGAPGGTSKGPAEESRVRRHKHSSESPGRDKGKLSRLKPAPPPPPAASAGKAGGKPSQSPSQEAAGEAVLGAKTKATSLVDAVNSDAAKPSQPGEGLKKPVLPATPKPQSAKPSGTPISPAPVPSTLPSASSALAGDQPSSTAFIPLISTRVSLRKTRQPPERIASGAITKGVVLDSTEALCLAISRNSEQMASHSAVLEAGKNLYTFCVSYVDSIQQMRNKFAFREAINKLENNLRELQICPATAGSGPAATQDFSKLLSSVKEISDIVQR

Row | Compound | pIC50 [1] | pEC50 [2] | solubility kinetic at 1 h [3] [µM] | Papp at 3 h [4] [×10⁻⁶ cm/s] | EC50 for c-Abl activation [5] [nM] | pEC50 [5]
1 | O=C1NC(=O)C(c2cn(-c3ccccc3)nc2-c2ccc(F)cc2)N1 (configuration not stated) | 6.40 | 6.10 | > 395 | 35 | – | –
2 | CC(=O)Nc1nc(-c2ccc(Br)s2)cs1 | 5.30 | < 4.30 | 16 (≈ 4.85 µg/mL) | 21 | 12600 | –
3 | CC(=O)Nc1nc(-c2ccc(Cl)cc2)cs1 | 5.00 | – | 1 (≈ 0.253 µg/mL) | 25 | 31600 | –
4 | CC(=O)Nc1nc(-c2cccc(O)c2)cs1 | 4.90 | – | 103 (≈ 24.1 µg/mL) | 27 | > 50100 | –
5 | O=C(NC1=NN(c2ccc(Cl)c(Cl)c2)CC1)c1ccccn1 | 5.70 | < 4.30 | 11 (≈ 3.69 µg/mL) | 35 | 2000 | –
6 | N#CCC(=O)NC1=NN(c2ccc(Cl)c(Cl)c2)CC1 | 6.40 | 6.00 | 202 (≈ 60 µg/mL) | 32 | 251 | –
7 | Cc1ncncc1C(=O)NC1=NN(c2ccc(Cl)c(Cl)c2)CC1 | 6.80 | 6.50 | 12 (≈ 4.2 µg/mL) | 34 | 39.8 | –
8 | CC(=O)N[C@@H](C)C(=O)NC1=NN(c2ccc(Cl)c(Cl)c2)CC1 | 5.90 | 5.10 | 58 (≈ 19.9 µg/mL) | 34 | 1580 | –
9 | CS(=O)(=O)Nc1nc(-c2ccc(Cl)c(Cl)c2)cs1 | < 4.30 | < 4.30 | 429 (≈ 139 µg/mL) | 22 | 25100 | –
10 | O=C(NC1=NN(c2ccc(Cl)c(Cl)c2)CC1)c1ccncc1F | 6.70 | 5.80 | 36 (≈ 12.7 µg/mL) | 28 | 126 | –
11 | O=C(NC1=NN(c2ccc(Cl)c(Cl)c2)CC1)c1cccnn1 | 6.10 | < 4.30 | 67 (≈ 22.5 µg/mL) | – | 5010 | –
12 | O=C1CCCC(C(=O)NC2=NN(c3ccc(Cl)c(Cl)c3)CC2)N1 (configuration not stated) | 6.30 | 5.60 | 416 (≈ 148 µg/mL) | 25 | 398 | –
13 | N#CCC(=O)Nc1csc(-c2ccc(Cl)c(Cl)c2)c1 | 5.40 | < 4.30 | 10 (≈ 3.11 µg/mL) | 12 | 15800 | –
14 | CC(=O)NC1=NN(c2ccc(Cl)c(Cl)c2)C[C@H]1C | 5.40 | 4.70 | 36 (≈ 10.3 µg/mL) | 38 | – | –
15 | CC(=O)NC1=NN(c2ccc(Cl)c(Cl)c2)[C@@H](C)C1 | 6.40 | 5.00 | 125 (≈ 35.8 µg/mL) | 42 | 501 | –
16 | O=C(Nc1nc(-c2ccc(Cl)c(Cl)c2)cs1)C1CC1 | 6.60 | < 4.30 | 3 (≈ 0.94 µg/mL) | 22.7 | 158 | –

Row | Compound | pIC50 [1] | pEC50 [2] | solubility kinetic at 1 h [3] [µM] | Papp at 3 h [4] [×10⁻⁶ cm/s] | EC50 for c-Abl activation [5] [nM] | pEC50 [5]
17 | CC(=O)Nc1nc(-c2cc(Cl)c(Cl)s2)cs1 | 5.20 | < 4.30 | 1 (≈ 0.293 µg/mL) | 28 | > 100000 | –
18 | CC(=O)Nc1nc(-c2ccc(Cl)c(Cl)c2)cs1 | 6.50 | 4.50 | < 1 | 19.6 | 2510 | –
19 | N#CCC(=O)Nc1nsc(-c2ccc(Cl)c(Cl)c2)n1 | 5.60 | 4.80 | 69 (≈ 21.6 µg/mL) | 28 | 2000 | –
20 | CC(=O)NC1=NN(c2ccc(Cl)c(Cl)c2)[C@H](C)C1 | 5.80 | 5.00 | 173 (≈ 49.5 µg/mL) | 41 | 2000 | –
21 | O=C(NC1=NN(c2ccc(Cl)c(Cl)c2)CC1)c1cccnc1F | 6.40 | 5.90 | 13 (≈ 4.59 µg/mL) | 57 | 126 | –
22 | CC(=O)Nc1nc(-c2ccc(Cl)c(F)c2)cs1 | 6.10 | 4.30 | 5 (≈ 1.35 µg/mL) | 35 | 3160 | –
23 | O=C(Nc1nc(-c2ccc(Cl)c(Cl)c2)cs1)c1cccnc1 | 6.70 | < 4.30 | 20 (≈ 7 µg/mL) | 37 | 398 | –
24 | CC(=O)Nc1nc(-c2nc(C)no2)cs1 | < 4.30 | – | 186 (≈ 41.7 µg/mL) | 25 | > 100000 | –
25 | O=C(Nc1nc(-c2ccc(Cl)c(Cl)c2)cs1)c1cncs1 | 6.70 | < 4.30 | 2 (≈ 0.713 µg/mL) | 6.1 | 501 | –
26 | N#CCC(=O)Nc1cccc(-c2ccc(Cl)c(Cl)c2)n1 | 5.80 | < 4.30 | 1 (≈ 0.306 µg/mL) | 21.5 | 12600 | –
27 | CC(=O)NC1=NN(c2ccc(Cl)c(Cl)c2)C[C@@H]1C | 6.40 | 6.20 | 32 (≈ 9.16 µg/mL) | 42 | – | –
28 | CC(=O)Nc1nc(-c2ccc(Cl)c(C)c2)cs1 | 6.10 | < 4.30 | 1 (≈ 0.267 µg/mL) | 14 | 31600 | –
29 | N#CCC(=O)Nc1nc(-c2ccc(Cl)c(Cl)c2)cs1 | 6.30 | 5.30 | 57 (≈ 17.8 µg/mL) | 14.2 | 1260 | –
30 | O=C(NC1=NN(c2ccc(Cl)c(Cl)c2)CC1)c1cncnc1 | 6.30 | 6.20 | 8 (≈ 2.69 µg/mL) | 35 | 251 | –
31 | N#CCC(=O)Nc1nc(-c2ccc(Cl)c(Cl)c2)ns1 | 6.00 | 5.00 | 370 (≈ 116 µg/mL) | 23 | 3160 | –
32 | CC(=O)NC1=NN(c2ccc(Cl)c(Cl)c2)CC1C (racemic) | 6.10 | 6.30 | 49 (≈ 14 µg/mL) | 40.5 | – | –

Other lines, results leading:

Row | pIC50 [1] | pEC50 [2] | solubility kinetic at 1 h [3] [µM] | Papp at 3 h [4] [×10⁻⁶ cm/s] | EC50 for c-Abl activation [5] [nM] | pEC50 [5] | Compound
33 | 6.50 | 7.00 | 9 (≈ 3.15 µg/mL) | 42 | 20 | – | C[C@H]1CN(c2ccc(Cl)c(Cl)c2)N=C1NC(=O)c1cncnc1
34 | 6.50 | 5.30 | 5 (≈ 1.93 µg/mL) | < 3 | 251 | – | O=C(Nc1nc(-c2ccc(Cl)c(Cl)c2)cs1)c1c(F)cccc1F
35 | 5.70 | 4.90 | 69 (≈ 15.9 µg/mL) | 32 | 6310 | – | NC1=NN(c2ccc(Cl)c(Cl)c2)CC1
36 | 6.10 | 4.70 | – | – | – | 5.00 | Cn1cnnc1SCC(=O)Nc1nc(-c2ccc(Cl)c(Cl)c2)cs1
37 | 6.70 | 4.80 | < 1 | 26 | 31.6 | – | Cn1ncc([N+](=O)[O-])c1C(=O)Nc1nc(-c2ccc(Cl)c(Cl)c2)cs1
38 | 5.40 | 4.70 | 12 (≈ 3.73 µg/mL) | 19 | 3160 | – | N#CCC(=O)Nc1cc(-c2ccc(Cl)c(Cl)c2)cs1
39 | 6.40 | 5.50 | – | – | 631 | – | O=C(NC1=NN(c2ccc(Cl)c(Cl)c2)CC1)c1c(F)cccc1F
40 | 5.60 | < 4.30 | 10 (≈ 2.71 µg/mL) | 9.4 | 39800 | – | CC(=O)Nc1nc(-c2ccc(F)c(Cl)c2)cs1
41 | 6.40 | 6.10 | 31 (≈ 8.44 µg/mL) | 36 | 316 | – | CC(=O)NC1=NN(c2ccc(Cl)c(Cl)c2)CC1
42 | < 4.30 | – | 2 (≈ 0.505 µg/mL) | 34 | 7940 | – | CC(=O)Nc1nc(-c2cccc(Cl)c2)cs1
43 | 6.50 | 5.80 | 9 (≈ 3.02 µg/mL) | 30.3 | 200 | – | O=C(NC1=NN(c2ccc(Cl)c(Cl)c2)CC1)c1ccncc1
44 | 6.20 | 5.50 | 14 (≈ 4.13 µg/mL) | 31 | 1580 | – | N#CCC(=O)Nc1nc(-c2ccc(Cl)c(Cl)c2)c[nH]1
45 | 6.60 | 6.20 | 4 (≈ 1.34 µg/mL) | 30.5 | 158 | – | O=C(NC1=NN(c2ccc(Cl)c(Cl)c2)CC1)c1cccnc1
46 | 6.90 | 4.80 | 2 (≈ 0.624 µg/mL) | 35 | 1580 | – | N#CCC(=O)Nc1csc(-c2ccc(Cl)c(Cl)c2)n1
47 | 6.00 | 4.40 | 13 (≈ 4.37 µg/mL) | 32 | 15800 | – | O=C(NC1=NN(c2ccc(Cl)c(Cl)c2)CC1)c1ccncn1
48 | 6.30 | 6.30 | 23 (≈ 7.73 µg/mL) | 36 | 251 | – | O=C(NC1=NN(c2ccc(Cl)c(Cl)c2)CC1)c1ccnnc1
49 | 5.80 | 5.10 | 34 (≈ 10 µg/mL) | 31 | 2510 | – | N#CCC(=O)Nc1ccn(-c2ccc(Cl)c(Cl)c2)n1
50 | 6.60 | 5.10 | 192 (≈ 72.8 µg/mL) | 19 | 126 | – | O=C(NC1=NN(c2ccc(Cl)c(Cl)c2)CC1CCO)c1cccnc1 (racemic)
